What was measured:
[1] = system: osteoclasts differentiated from mouse bone marrow cells; test: TRAP assay, osteoclast proliferation and differentiation inhibitory activity; assay type: cell-based
Description: Bone marrow cells were collected from the femur and shin bones of 5-8 week old male C57BL/6 mice. Muscles were removed from the bones, and stored in cold phosphate buffered saline (PBS; # CAP08-050, GenDEPOT, Katy, Tex., USA).
Both ends of each bone were cut, and the bone marrow was flushed with a flushing medium (serum-free α-MEM, 2 mM ethylenediaminetetraacetic acid) kept cool, using a 25 G needle.
Bone marrow cells were collected by centrifugation at 3,000 rpm for 3 min using Labogene 1248R (Labogene, Lynge, Denmark), and then resuspended in a wash medium. Thereafter, 8 mL of the collected bone marrow cells were overlaid on 6 mL of a lymphocyte isolation medium (LSM; #50494, MP Biomedicals, Santa Ana, Calif., USA), followed by centrifugation at 1,600 rpm for 20 minutes, thereby isolating mononuclear cells.
The mononuclear cell bands were collected from the media interface, and incubated using complete α-MEM (containing 10% fatal bovine serum (FBS; Capricorn Scientific, Ebsdorfergrund, Germany) and 1% (v/v) antibiotic (including 100 U/mL penicillin G and […] streptomycin)) in the conditions of 37° C. and 5% CO2 while the medium was exchanged every three days.
In order to promote the differentiation of osteoclasts, 1×10^5 cells were incubated in 0.5 mL of the medium per well in a 48-well plate, in the presence of osteoclast differentiation factors, M-CSF (60 ng/mL) and RANKL (150 ng/mL), purchased from PeproTec (Seoul, Korea). As known, macrophages/monocytes derived from one bone marrow differentiated into mature multinucleated osteoclasts after 6 days (Gurt et al., 2015).
The tibia and femur of 6-8 week old male C57BL/6 mice were aseptically resected, and bone marrow cells were aseptically collected using a syringe (21 G, Korea Green Cross). The bone marrow cells were floated in 500 μL of α-MEM medium (Gibco BRL Co.) containing sodium bicarbonate (2.0 g/L), streptomycin (100 mg/L), and penicillin ([…]), dispensed in a 48-well plate, and assayed in triplicate. Mononuclear cells as precursor cells of osteoclasts were treated with RANKL and M-CSF as differentiation promoting factors, and thus differentiated into osteoclasts within 5-7 days.
2-1) Sample preparation: The hot-water extract, EA extract, or fraction of Osmunda japonica were prepared by the same methods as in section 1 of <Example 1>. The EA-2 extract was dissolved in a minimum amount of DMSO, and then diluted with water to 70% of the original volume of the hot-water extract assuming that the yield of EA-2 extraction was approximately 70%. 2-2) Sample administration: The sample was continuously administered to a medium at 1:20 (v/v; 25 μL of the sample per 500 μL of the medium) from day 1 of incubation of bone marrow cells, while the medium was exchanged every 2-3 days. 2-3) Measurement of osteoclast differentiation Osteoclasts were defined by TRAP-positive multinucleated cells stained with TRAP. As for TRAP stain solution, 5 mg of naphthol AS-MS phosphate (Sigma N-4875) as a base and 25 mg of Fast Red Violet LB salt as a color developing reagent were dissolved in about 0.5 mL of N,N-dimethylformamide, and then mixed with 0.1N NaHCO3 buffer solution (50 mL) containing 50 mM tartaric acid. The reaction reagent was stored in a refrigerator before use.
After bone marrow cells were incubated in a medium containing differentiation promoting factors for 7 days, the medium was removed, and the cells were washed with PBS, and then immobilized with PBS containing 10% formalin for 2-5 minutes. Thereafter, the cells were immobilized with a 1:1 mixture solution of ethanol and acetone, followed by drying. The immobilized cells were treated with the TRAP stain solution for 15 minutes, and washed with PBS, and then the degree of cell staining was observed by a microscope.
In the microscope field of view, cells having two or more nuclei in the TRAP-positive cells were determined to be osteoclasts, and the number of cells was measured. […]

ALP activity in MC3T3-E1 = test: Measurement of ALP activity in MC3T3-E1; assay type: cell-based, mouse; conditions: 1 μM (positive control, printed in the 10 μM column), MC3T3-E1
Description: ALP activity was assessed using Quantichrom ALP Assay Kit (Bioassay Systems, Hayward, Calif., USA) according to manufacturer's instructions.
Briefly, 3×10^3 MC3T3-E1 cells were dispensed in a 96-well plate together with […] of complete α-MEM containing ascorbic acid (50 μg/mL) and 10 mM β-glycerophosphate per well. Here, osmundacetone (10 μM and 50 μM) was added or not added, and the medium was exchanged every 3-4 days.
On day 14 of the incubation, the colorimetric change due to ALP activity in the cell fraction was measured using a spectrophotometer plate reader (Molecular Devices, Sunnyvale, Calif., USA) at 405 nm (Kim et al., 2016). The % activation of ALP activity was shown by comparing ALP activity of cells treated with an experimental compound and ALP activity of the non-treated control cells.

Row | Molecule | formation of giant osteoclasts, number compared with the positive control group ([1]; 1 μM) | IC50 ([1]; Mus musculus, Osteoclast, tested at 1, 4, 7 and 10 μM, TRAP-positive multinucleated cells) [µM] | % Activation of ALP activity (ALP activity in MC3T3-E1) [%]
1 | NCCCC(O)(P(=O)(O)O)P(=O)(O)O [Fosamax, alendronate, reference compound] | smaller compared with the positive control group | ≤ 4 | 
2 | Parathyroid hormone-related peptide [reference compound] |  |  | 138 ± 19

Reference: patent publication US20200129450A1, “COMPOSITION COMPRISING OSMUNDACETONE OR PHARMACEUTICALLY ACCEPTABLE SALT THEREOF FOR PREVENTING OR TREATING BONE DISEASE” (KORPHARM CO., LTD., priority 2016, published 2020)
